# Test results from patent publication US7982047B2, “Derivatives of 1,3-diones having a herbicidal activity” (Isagro Ricerca S.r.l., priority 2003, dated 2011).
# Tests used:
# Portulaca oleracea [1] = assay: Post-emergence herbicidal activity; format: in vivo; conditions: 500 g/ha, evaluated fifteen days after the treatment, damage vs blank
# Description: (§1) Determination of the Herbicidal Activity and Phyto-Toxicity in Post-emergence The herbicidal activity of the compounds of the invention in post-emergence was evaluated according to the following operative procedures. The plant species of interest (weeds or crops) were sown in pots with an upper diameter of 10 cm, a height of 10 cm and containing sandy soil. 10 pots were used for each plant species. Water was added to each pot in such a quantity as to germinate the seeds. The pots were divided into two groups, each containing 5 pots for each weed or crop. Fifteen days after sowing (ten, in the case of wheat), when the weeds and crops, according to the species, were 10-15 cm high, the first set of pots was treated with a hydro-acetonic dispersion containing acetone at 10% in volume, the product under evaluation at the desired concentration and Tween 20 at 0.5%. The second set was treated with a hydro-acetonic solution only, containing acetone at 10% in volume and Tween 20 at 0.5%, and was used as comparison (blank). All pots were kept under observation in a conditioned environment under the following conditions: • temperature: 24° C.; • relative humidity: 60%; • photo-period: 16 hours; • light intensity: 10000 lux. The pots were uniformly watered every other day so as to ensure a humidity degree sufficient for a good development of the plants. The herbicidal activity was evaluated fifteen days after the treatment, on the basis of the following values which refer to the percentage of damage tested on the treated plants with respect to the non-treated plants (blank): [table]
# Abutilon theofrasti [2] = assay: Post-emergence herbicidal activity; format: in vivo; conditions: 500 g/ha, evaluated fifteen days after the treatment, damage vs blank
# Description: as §1
# Galium aparine [3] = assay: Post-emergence herbicidal activity; format: in vivo; conditions: 500 g/ha, evaluated fifteen days after the treatment, damage vs blank
# Description: as §1
# Solanum nigrum [4] = assay: Post-emergence herbicidal activity; format: in vivo; conditions: 500 g/ha, evaluated fifteen days after the treatment, damage vs blank
# Description: as §1
# Stellaria media [5] = assay: Post-emergence herbicidal activity; format: in vivo; conditions: 500 g/ha, evaluated fifteen days after the treatment, damage vs blank
# Description: as §1
# Chenopodium album [6] = assay: Post-emergence herbicidal activity; format: in vivo; conditions: 500 g/ha, evaluated fifteen days after the treatment, damage vs blank
# Description: as §1
# Portulaca oleracea [7] = assay: Pre-emergence herbicidal activity; format: in vivo; conditions: 500 g/ha, evaluated fifteen days after the treatment, damage vs blank
# Description: (§2) Determination of the Herbicidal Activity and Phyto-Toxicity in Pre-Emergence The herbicidal activity of the compounds of the invention in pre-emergence was evaluated according to the following operative procedures. The plant species of interest (weeds or crops) were sown in pots with an upper diameter of 10 cm, a height of 10 cm and containing sandy soil. 10 pots were used for each plant species. Water was added to each pot in such a quantity as to germinate the seeds. The pots were divided into two groups, each containing 5 pots for each weed or crop. After one day from the sowing, the first set of pots was treated with a hydro-acetonic dispersion containing acetone at 10% in volume, the product under evaluation at the desired concentration and Tween 20 at 0.5%. The second set was treated with a hydro-acetonic solution only, containing acetone at 10% in volume and Tween 20 at 0.5%, and was used as comparison (blank). All pots were kept under observation in a conditioned environment under the following conditions: • temperature: 24° C.; • relative humidity: 60%; • photoperiod: 16 hours; • light intensity: 10000 lux. The pots were uniformly watered in order to ensure a sufficient humidity degree for a good development of the plants. Fifteen days after the treatment, the herbicidal activity was evaluated on the basis of the following values, which refer to the damage percentage tested on the treated plants, with respect to the non-treated plants (blank): [table]
# Amaranthus retroflexus = assay: Pre-emergence herbicidal activity; format: in vivo; conditions: 500 g/ha, evaluated fifteen days after the treatment, damage vs blank
# Description: as §2
# Abutilon theofrasti [8] = assay: Pre-emergence herbicidal activity; format: in vivo; conditions: 500 g/ha, evaluated fifteen days after the treatment, damage vs blank
# Description: as §2
# Galium aparine [9] = assay: Pre-emergence herbicidal activity; format: in vivo; conditions: 500 g/ha, evaluated fifteen days after the treatment, damage vs blank
# Description: as §2
# Solanum nigrum [10] = assay: Pre-emergence herbicidal activity; format: in vivo; conditions: 500 g/ha, evaluated fifteen days after the treatment, damage vs blank
# Description: as §2
# Stellaria media [11] = assay: Pre-emergence herbicidal activity; format: in vivo; conditions: 500 g/ha, evaluated fifteen days after the treatment, damage vs blank
# Description: as §2
# Ipomea purpurea = assay: Pre-emergence herbicidal activity; format: in vivo; conditions: 500 g/ha, evaluated fifteen days after the treatment, damage vs blank
# Description: as §2
# Chenopodium album [12] = assay: Pre-emergence herbicidal activity; format: in vivo; conditions: 500 g/ha, evaluated fifteen days after the treatment, damage vs blank
# Description: as §2
structure (smiles),measurement,setting,value
CS(=O)(=O)c1ccc(C(=O)C(C(=O)C2CC2)c2ccc([N+](=O)[O-])cc2[N+](=O)[O-])c(Cl)c1 (stereo not shown),melting point,,67 °C
"CS(=O)(=O)c1ccc(C(=O)C(C(=O)C(F)(F)F)c2ccccn2)c(Cl)c1 (stereo not shown) [Compound N-616, 1-[2-chloro-4-(methylsuiphonyl)phenyl]-2-(pyridin-2-yl)-4,4,4-trifluorobutane-1,3-dione]",melting point,,189 °C
"Cn1nnc(C(C(=O)c2ccc(S(C)(=O)=O)cc2Cl)C(=O)C2CC2)n1 (stereo not shown) [Compound N^o 6, 1-[2-chloro-4-(methylsulphonyl)phenyl]-3-cyclopropyl-2-(2-methyl-2H-tetrazol-5-yl)propane-1,3-dione]",Post-emergence herbicidal activity PO,Portulaca oleracea [1],5 (91% damage - death of the plant.)
same,Post-emergence herbicidal activity AT,Abutilon theofrasti [2],5 (91% damage - death of the plant.)
same,Post-emergence herbicidal activity GA,Galium aparine [3],5 (91% damage - death of the plant.)
same,Post-emergence herbicidal activity SN,Solanum nigrum [4],5 (91% damage - death of the plant.)
same,Post-emergence herbicidal activity SM,Stellaria media [5],5 (91% damage - death of the plant.)
same,Post-emergence herbicidal activity CA,Chenopodium album [6],5 (91% damage - death of the plant.)
same,Pre-emergence herbicidal activity PO,Portulaca oleracea [7],5 (91% damage - death of the plant.)
same,Pre-emergence herbicidal activity AR,Amaranthus retroflexus,5 (91% damage - death of the plant.)
same,Pre-emergence herbicidal activity AT,Abutilon theofrasti [8],5 (91% damage - death of the plant.)
same,Pre-emergence herbicidal activity GA,Galium aparine [9],5 (91% damage - death of the plant.)
same,Pre-emergence herbicidal activity SN,Solanum nigrum [10],5 (91% damage - death of the plant.)
same,Pre-emergence herbicidal activity SM,Stellaria media [11],5 (91% damage - death of the plant.)
same,Pre-emergence herbicidal activity IP,Ipomea purpurea,5 (91% damage - death of the plant.)
same,Pre-emergence herbicidal activity CA,Chenopodium album [12],5 (91% damage - death of the plant.)
"Cn1nnnc1C(C(=O)c1ccc(S(C)(=O)=O)cc1Cl)C(=O)C1CC1 (stereo not shown) [Compound N^o 7, 1-[2-chloro-4-(methylsulphonyl)phenyl]-3-cyclopropyl-2-(1-methyl-1H-tetrazol-5-yl)propane-1,3-dione]",Pre-emergence herbicidal activity PO,Portulaca oleracea [7],5 (91% damage - death of the plant.)
same,Pre-emergence herbicidal activity AR,Amaranthus retroflexus,5 (91% damage - death of the plant.)
same,Pre-emergence herbicidal activity AT,Abutilon theofrasti [8],5 (91% damage - death of the plant.)
same,Pre-emergence herbicidal activity SN,Solanum nigrum [10],5 (91% damage - death of the plant.)
same,Pre-emergence herbicidal activity SM,Stellaria media [11],5 (91% damage - death of the plant.)
same,Pre-emergence herbicidal activity CA,Chenopodium album [12],5 (91% damage - death of the plant.)
"Cc1noc(C(C(=O)c2ccc(S(C)(=O)=O)cc2Cl)C(=O)C2CC2)n1 (stereo not shown) [Compound N^o 11, 1-[2-chloro-4-(methylsulphonyl)phenyl]-3-cyclopropyl-2-(3-methyl-1,2,4-oxadiazol-5-yl)propane-1,3-dione]",Post-emergence herbicidal activity AT,Abutilon theofrasti [2],5 (91% damage - death of the plant.)
same,Post-emergence herbicidal activity SN,Solanum nigrum [4],5 (91% damage - death of the plant.)
same,Post-emergence herbicidal activity CA,Chenopodium album [6],5 (91% damage - death of the plant.)
same,Pre-emergence herbicidal activity PO,Portulaca oleracea [7],5 (91% damage - death of the plant.)
same,Pre-emergence herbicidal activity AT,Abutilon theofrasti [8],5 (91% damage - death of the plant.)
same,Pre-emergence herbicidal activity IP,Ipomea purpurea,5 (91% damage - death of the plant.)
same,Pre-emergence herbicidal activity CA,Chenopodium album [12],5 (91% damage - death of the plant.)
"CS(=O)(=O)c1ccc(C(=O)C(C(=O)C2CC2)n2cncn2)c(Cl)c1 (stereo not shown) [Compound No 460, 1-[2-chloro-4-(methylsulphonyl)phenyl]-3-cyclopropyl-2-(1,2,4-triazol-1-yl)propane-1,3-dione]",melting point,,162 °C
"CS(=O)(=O)c1ccc(C(=O)C(C(=O)C2CC2)c2nnc(C(F)(F)F)s2)c(Cl)c1 (stereo not shown) [Compound No 2918, 1-[2-chloro-4-(thylsulphonyl)phenyl]-3-cyclopropyl-2-(5-trifluoromethyl-1,3,4-thiadiazol-2-yl)propane-1,3-dione]",melting point,,185 °C
